Measured values: patent US20070049535A1, “PREVENTIVE/REMEDY FOR DIABETIC COMPLICATIONS USING OLIGOPEPTIDE” (priority 2004, published 2007)
pIC50: −log10 of the molar value. Read-outs that look alike come from different tables or passages of the source. Peptide text beside a SMILES is read from it.

Legend:
[1] = system: AGE2 production by glyceraldehyde and bovine serum albumin; assay: Inhibition of AGE2 production by glyceraldehyde and serum albumin (ELISA with anti-AGE2 polyclonal antibody); conditions: read-out: IC50 of inhibition of AGE2 production; 10 mM glyceraldehyde, 10 mg/ml bovine serum albumin, phosphate buffer pH 7.4, 37° C., 3 days
Description: (§1) Three days later, AGE2 concentration of the reaction mixture was measured, and IC50 value of inhibition of AGE2 production by each peptide or amino acid was calculated. The AGE2 measurement was performed by the ELISA method using an anti-AGE2 polyclonal antibody prepared from rabbit, according to a conventional method.

[2] = system: AGE2 production by glyceraldehyde and bovine serum albumin; conditions: pH 7.4
Description: as §1

[3] = AGE2-producing capability by reaction of oligopeptide with glyceraldehyde (ELISA with anti-AGE2 polyclonal antibody); assay type: biochemical; conditions: for AGE2 concentration: 10 mM amino acid or peptide + 100 mM glyceraldehyde, 0.1M phosphate buffer pH 7.4, 37° C., 1 week
Description: To 0.1M phosphate buffer (pH 7.4) containing 10 mM of any of Lys, Lys-Lys, Lys-Lys-Lys, and Lys-Lys-Lys-Lys (SEQ ID NO: 1) was added 100 mM glyceraldehyde and the mixture was reacted at 37° C. for 1 week. One week later, the AGE2 concentration of the reaction mixture was measured.

serum AGE2 = assay: Serum AGE2 concentration reduction in diabetic mouse model (db/db mouse); assay type: in vivo; conditions: db/db mice
Description: 7-Week-old male db/db mice were randomly divided into 4 groups (3 per group), distilled water, 10 mM Lys-Lys solution, 30 mM Lys-Lys solution, or 100 mM Lys-Lys solution was freely given for 10 days as drinking water, blood samples were collected from the heart, and the serum AGE2 concentration was measured.

| pIC50 ([2]; bovine, 3 days) | Structure (SMILES) | pIC50 [1] | AGE2 concentration [3] | further results |
| --- | --- | --- | --- | --- |
|  | N=C(N)NCCC[C@H](N)C(=O)O [Arg, reference compound] | 2.72 |  |  |
| 3.11 | NCCCC[C@H](NC(=O)[C@@H](N)CCCN=C(N)N)C(=O)O [Arg-Lys] (H-Arg-Lys-OH) |  |  |  |
|  | NCCCC[C@H](N)C(=O)O [Lys, reference compound] |  | 0.47 U/ml | pIC50 [2]: 2.66 |
|  | NCCCC[C@H](NC(=O)[C@H](CCCCN)NC(=O)[C@H](CCCCN)NC(=O)[C@@H](N)CCCCN)C(=O)O [Lys-Lys-Lys-Lys] (H-KKKK-OH) | 3.21 | 14.2 U/ml |  |
| 3.25 | NCCCC[C@H](NC(=O)[C@@H](N)CCCCN)C(=O)O [Lys-Lys] |  | 4.7 U/ml | AGE2 production capacity relative to Lys alone ([3]; reaction with glyceraldehyde, versus Lys alone): about 10 times; serum AGE2 concentration (serum AGE2; 10 mM solution as drinking water for 10 days): 3.5 ± 0.6 U/ml; serum AGE2 concentration (serum AGE2; 30 mM solution as drinking water for 10 days): 2.3 ± 0.4 U/ml; serum AGE2 concentration (serum AGE2; 100 mM solution as drinking water for 10 days): 1.7 ± 0.2 U/ml; serum AGE2 concentration, dose dependence (serum AGE2; 10-100 mM solution as drinking water for 10 days): decreased in a manner dependent on the Lys-Lys concentration |
